Measurements from patent publication US8513224B2, “Crystalline form C of tigecycline dihydrochloride and methods for its preparation” (Sandoz AG, priority 2008, dated 2013).
Where a name gives a salt, the structure may show the parent alone.

What was measured:
Type in all cases: physicochemical
physchem = experiment: physchem
Method: The finished dosage form contains lyophilized amorphous Tigecycline respectively Tigecycline hydrochloride. Before lyophilizing, Tigecycline respectively acid addition salts of Tigecycline are dissolved in water, thus water solubility is an important factor to consider.
A UV-vis Lambda 35 spectrophotometer (Perkin-Elmer) was used (λ=347 nm, 1.0 cm quartz cells). Perkin Elmer® UV Win Lab-5.1 software was used.
A saturated solution of Tigecycline, Tigecycline hydrochloride or Tigecycline dihydrochloride in distilled water was prepared and the suspension was stirred at room temperature for 30 minutes with a stirring speed of 1000 U/min. The suspension was filtered through a 0.45 μm filter. Finally the resulting solution was diluted 10000-fold and measured against water at a wavelength of 347 nm.

[1] = Physical stability at elevated temperatures (impurities by HPLC); details: for 4-Epi-Tigecycline 7 days at 80° C. / Total impurities 7 days at 80° C. / Stability in words (impurities after storage): stored 7 days at 80° C.; for 4-Epi-Tigecycline 7 days at 80° C. / Total impurities 7 days at 80° C.: in % (unit assumed)
Source text: Tigecycline must be available in a physically stable form as well, in order to avoid degradation and as a consequence the building of undesired byproducts. Table 4 compares the stability data of the different crystalline forms of Tigecycline free base and Tigecycline hydrochloride with these of crystalline form C of Tigecycline dihydrochloride from the present invention.
Therefore crystalline form C of Tigecycline dihydrochloride in essentially pure polymorphic form is more preferred than amorphous Tigecycline dihydrochloride.

[2] = Thermodynamical stability (crystal structure after storage); details: stored 7 days at 80° C.
[3] = Water content on storage at defined relative humidity; details: stored at about 0% relative humidity
Source text: Form C of Tigecycline dihydrochloride is an anhydrous form, containing no water when stored at about 0% relative humidity and containing not more than about 0.8% to 1.7% e.g. when stored at about 50% relative humidity.

SMILES | 4-Epi-Tigecycline at ambient conditions [1] [%] | Total impurities at ambient conditions [1] [%] | 4-Epi-Tigecycline 7 days at 80° C. [1] | Total impurities 7 days at 80° C. [1] | further results
CN(C)c1cc(NC(=O)CNC(C)(C)C)c(O)c2c1C[C@H]1C[C@H]3[C@H](N(C)C)C(O)=C(C(N)=O)C(=O)[C@@]3(O)C(O)=C1C2=O [A (xHCl), Tigecycline hydrochloride] | – | – | – | – | Water solubility, Concentration (physchem; 30 min): 503 mg/mL; solubility at 30 min (physchem; water, thermodynamic from solid, Water solubility, Concentration): 503 mg/mL; 4-Epi-Tigecycline at ambient conditions ([1]; hydrochloride): 0.84%; Total impurities at ambient conditions ([1]; hydrochloride): 1.07%; 4-Epi-Tigecycline 7 days at 80° C. ([1]; hydrochloride): 0.89; Total impurities 7 days at 80° C. ([1]; hydrochloride): 1.81
CN(C)c1cc(NC(=O)CNC(C)(C)C)c(O)c2c1C[C@H]1C[C@H]3[C@H](N(C)C)C(O)=C(C(N)=O)C(=O)[C@@]3(O)C(O)=C1C2=O [amorphous (x2HCl), Tigecycline dihydrochloride] | – | – | – | – | 4-Epi-Tigecycline at ambient conditions ([1]; dihydrochloride): 4.97%; Total impurities at ambient conditions ([1]; dihydrochloride): 5.05%; 4-Epi-Tigecycline 7 days at 80° C. ([1]; dihydrochloride): 16.42; Total impurities 7 days at 80° C. ([1]; dihydrochloride): 18.82
CN(C)c1cc(NC(=O)CNC(C)(C)C)c(O)c2c1C[C@H]1C[C@H]3[C@H](N(C)C)C(=O)C(C(N)=O)=C(O)[C@@]3(O)C(=O)C1=C2O [WO 2006/128150 III, Tigecycline] | 0.16 | 0.16 | 2.18 | 4.46 | –
CN(C)c1cc(NC(=O)CNC(C)(C)C)c(O)c2c1C[C@H]1C[C@H]3[C@H](N(C)C)C(O)=C(C(N)=O)C(=O)[C@@]3(O)C(O)=C1C2=O [C (x2HCl), Tigecycline dihydrochloride] | 0.73 | 0.83 | 2.40 | 2.60 | Change of crystal structure on storage [2]: did not change its crystal structure; Water solubility compared with the other crystalline forms (physchem): highest water solubility; Water content [3]: no water
CN(C)c1cc(NC(=O)CNC(C)(C)C)c(O)c2c1C[C@H]1C[C@H]3[C@H](N(C)C)C(O)=C(C(N)=O)C(=O)[C@@]3(O)C(O)=C1C2=O [WO 2006/128150 I, Tigecycline] | 0.36 | 0.75 | 2.15 | 11.20 | Stability in words (impurities after storage) [1]: tremendous increase in total impurities
CN(C)c1cc(NC(=O)CNC(C)(C)C)c(O)c2c1C[C@H]1C[C@H]3[C@H](N(C)C)C(O)=C(C(N)=O)C(=O)[C@@]3(O)C(O)=C1C2=O [WO 2007/127292 I, Tigecycline] | – | – | – | – | 4-Epi-Tigecycline at ambient conditions ([1]; listed as WO 2007/127792 I): 0.34%; Total impurities at ambient conditions ([1]; listed as WO 2007/127792 I): 0.59%; 4-Epi-Tigecycline 7 days at 80° C. ([1]; listed as WO 2007/127792 I): 1.26; Total impurities 7 days at 80° C. ([1]; listed as WO 2007/127792 I): 2.22
CN(C)c1cc(NC(=O)CNC(C)(C)C)c(O)c2c1C[C@H]1C[C@H]3[C@H](N(C)C)C(O)=C(C(N)=O)C(=O)[C@@]3(O)C(O)=C1C2=O [WO 2008/066935 IX, Tigecycline] | 0.15 | 0.43 | 0.70 | 2.13 | –
CN(C)c1cc(NC(=O)CNC(C)(C)C)c(O)c2c1C[C@H]1C[C@H]3[C@H](N(C)C)C(O)=C(C(N)=O)C(=O)[C@@]3(O)C(O)=C1C2=O [WO 2006/128150 II, Tigecycline] | 1.04 | 1.6 | 10.83 | 18.44 | Stability in words (impurities after storage) [1]: tremendous increase in total impurities
CN(C)c1cc(NC(=O)CNC(C)(C)C)c(O)c2c1C[C@H]1C[C@H]3[C@H](N(C)C)C(O)=C(C(N)=O)C(=O)[C@@]3(O)C(O)=C1C2=O [WO 2006/128150 V, Tigecycline] | < 0.05 | 0.22 | 0.18 | 0.37 | –
CN(C)c1cc(NC(=O)CNC(C)(C)C)c(O)c2c1C[C@H]1C[C@H]3[C@H](N(C)C)C(O)=C(C(N)=O)C(=O)[C@@]3(O)C(O)=C1C2=O [WO 2007/127292 II, Tigecycline] | – | – | – | – | 4-Epi-Tigecycline at ambient conditions ([1]; listed as WO 2007/127792 II): 0.17%; Total impurities at ambient conditions ([1]; listed as WO 2007/127792 II): 0.24%; 4-Epi-Tigecycline 7 days at 80° C. ([1]; listed as WO 2007/127792 II): 0.38; Total impurities 7 days at 80° C. ([1]; listed as WO 2007/127792 II): 0.91
CN(C)c1cc(NC(=O)CNC(C)(C)C)c(O)c2c1C[C@H]1C[C@H]3[C@H](N(C)C)C(O)=C(C(N)=O)C(=O)[C@@]3(O)C(O)=C1C2=O.Cl.Cl [C + 20% amorphous (x2HCl), Tigecycline dihydrochloride] | 1.73 | 1.81 | 4.34 | 4.88 | Stability in words (impurities after storage) [1]: less stable than a pure polymorphic form C
CN(C)c1cc(NC(=O)CNC(C)(C)C)c(O)c2c1C[C@H]1C[C@H]3[C@H](N(C)C)C(O)=C(C(N)=O)C(=O)[C@@]3(O)C(O)=C1C2=O [B (xHCl), Tigecycline hydrochloride] | – | – | – | – | 4-Epi-Tigecycline at ambient conditions ([1]; hydrochloride): 0.93%; Total impurities at ambient conditions ([1]; hydrochloride): 1.91%; 4-Epi-Tigecycline 7 days at 80° C. ([1]; hydrochloride): 1.60; Total impurities 7 days at 80° C. ([1]; hydrochloride): 4.19
CN(C)c1cc(NC(=O)CNC(C)(C)C)c(O)c2c1C[C@H]1C[C@H]3[C@H](N(C)C)C(=O)C(C(N)=O)=C(O)[C@@]3(O)C(=O)C1=C2O [WO 2008/066935 XII, Tigecycline] | 0.15 | 0.4 | 0.70 | 4.38 | –
CN(C)c1cc(NC(=O)CNC(C)(C)C)c(O)c2c1C[C@H]1C[C@H]3[C@H](N(C)C)C(O)=C(C(N)=O)C(=O)[C@@]3(O)C(O)=C1C2=O [WO 2006/128150 IV, Tigecycline] | 0.23 | 0.4 | 0.38 | 0.87 | –
